Test [1] relates to zebrafish. Description: MPTP-induced dopaminergic neuron loss in zebrafish (TH whole-mount immunostaining). Format: in vivo, Danio rerio. The conditions noted are these: positive control, MPTP 48 h. As to the method: Zebrafish at 1 dpf were exposed to BHDPC (3, 10, 30 μM) with or without MPTP for 48 h. Then fish were fixed for whole mount immunostaining. The morphology change of dopaminergic neurons in zebrafish brain was indicated by immunostaining with antibody against tyrosine hydroxylase (TH). Statistical analysis of TH density was accessed in each 10 fish/group. […] Zebrafish at 1 dpf were exposed to different concentrations of BHDPC with or without MPTP for 48 h. Then fish were fixed for whole mount immunostaining.
(§1) The AB strain of wild type zebrafish (Danio rerio) was maintained as described in the Zebrafish Handbook. Zebrafish were staged by days post fertilization […]. For breeding, groups of male and female (3:2) adult zebrafish were placed in 10-L plastic aquarium equipped with spawning nets in the evening. In the following morning, eggs were collected from the breeding group tanks. Normally developed fertilized eggs were selected under a stereomicroscope for further studies. The MPTP manipulation was performed with appropriate safety precautions and all MPTP-containing water was bleached.
Whole-mount immunostaining in zebrafish was performed as previously described. 3 dpf Zebrafish larvae were fixed with 4% paraformaldehyde in PBS for 30 min, […] (TH) staining was performed as previously described. Briefly, zebrafish were fixed in 4% paraformaldehyde in PBS for 5 h. Fixed samples were blocked (2% lamb serum and 0.1% BSA in PBST) for 1 h at room temperature. A mouse monoclonal anti-tyrosine hydroxylase (TH) antibody (Millipore, Billerica, MD, USA) was used as the primary antibody and incubated with samples overnight at 4° C. On the next day, samples were washed six times with PBST (each wash lasted 30 min), followed by incubation with Alexa Fluor® 488 goat anti-mouse antibodies. After immunostaining, zebrafish were mounted with 3.5% methylcellulose and photographed. Semi-quantification of the area of TH^+ cells was assessed by an investigator, unaware of the drug treatment, using Image-J software. Results are expressed as percentage of area of TH^+ cells in untreated normal control groups.
In this example, the in vivo animal model was used to determine the neuroprotective effect of BHDPC. Anti-tyrosine hydroxylase (TH) whole mount immunostaining was used to determine dopaminergic neuronal populations in zebrafish larvae (FIG. 15A). TH activity is the key enzyme responsible for dopamine biosynthesis in the CNS. […] The dopamine reuptake inhibitor nomifensine (Nom), which protected against MPTP-induced neurotoxicity in vivo was used as a positive control. The treatment of larvae with 30 μM of nomifensine, a positive control drug attenuated MPTP-induced neurotoxicity, with TH^+ density […] by 30% compared to the MPTP group.
L-deprenyl, which is a substituted phenethylamine used in treatment of early Parkinson's disease, was used as a positive control.

Test [2] relates to zebrafish. Kind of test: MPTP-induced deficit of locomotion behavior in zebrafish larvae. As to conditions: 150 μM L-dopa with MPTP, positive control. Format: in vivo, Danio rerio. Here is the method: Three dpf zebrafish embryos were co-incubated with 10 μM MPTP and BHDPC at the indicated concentrations for 96 hours, and zebrafish larval co-treated with MPTP and 150 μM L-dopa was used as positive control. After treatment, zebrafish were collected to perform locomotion behavior test using Viewpoint Zebrabox system and total distances travelled in 10 min were calculated.
as §1
In addition, MPTP markedly altered the swimming behavior of the zebrafish as a consequence of DA neuronal injury. […] BHDPC ameliorated MPTP-induced deficit of swimming behavior. At the same condition, MPTP-induced deficit of swimming behavior were rescued by positive controls, levodopa (L-dopa) (FIG. 16).

Take `C#CCN(C)[C@H](C)Cc1ccccc1` [L-deprenyl, reference compound]: the “TH+ density compared to the MPTP group (FIG. 15B)” value in the test on zebrafish [1] is on record as “significant increase”.
`N[C@@H](Cc1ccc(O)c(O)c1)C(=O)O` [levodopa, reference compound]: the “MPTP-induced deficit of swimming behavior (total distance travelled in 10 min)” value with zebrafish [2] is reported as “rescued”.
Turning to `CN1Cc2c(N)cccc2C(c2ccccc2)C1` (stereo not drawn) [nomifensine, reference compound], the “TH+ density reduced by, compared to the MPTP group” value in the test on zebrafish [1] (30 μM nomifensine) was found to be 30%.

The values above are taken from US20160113931A1, “Method of treating and/or preventing neurodegenerative diseases” (University of Macau, priority 2014, published 2016).
